Test results from patent US8771641B2, “Aryloxyanilide imaging agents” (priority 2009, dated 2014).

How the values were obtained:
[1] = cited from earlier work
PBR [2] = target: PBR (Homo sapiens, UniProt P30536); conditions: in vivo; cited from earlier work
PBR [3] = target: T1, PBR (Rattus norvegicus, UniProt P16257); assay: In vivo biodistribution model: OB:striatum uptake; parameters: species or system Wistar rats; conditions: injection via lateral tail vein, 2, 10, 30 or 60 min, in words, compared with PBR06
T1 construct: OB is known to express higher levels of PBR compared with other areas of rat brain; from tissue; host or cells: living Wistar rats; olfactory bulb and striatum sampled
Procedure: Example 11 describes the rat biodistribution model that was used to compare in vivo imaging agents of the invention with PBR06. […] As OB is known to express higher levels of PBR compared with other areas of rat brain (see “Handbook of Substance Abuse” by Tarter, Ammerman and Ott; Springer 1998: 398-99) the ratio OB:striatum is a measure of specificity of test compound uptake.
PBR06 (synthesised according to Briard et al J Med Chem 2009; 52: 688-699) and in vivo imaging agents 1-3 were tested in an in vivo biodistribution model and their respective biodistributions compared.
Adult male Wistar rats (200-300 g) were injected with 1-3 MBq of test compound via the lateral tail vein. At 2, 10, 30 or 60 min (n=3) after injection, rats were euthanised and tissues or fluids were sampled for radioactive measurement on a gamma counter.

[4] = Metabolism assay: intact test compound in rat brain by HPLC; type: in vivo, Wistar rats; conditions: 60 minutes post-injection; for proportion intact in the brain (in words): compared with PBR06
Procedure: Example 12 describes the assay used to evaluate the amount of intact test in vivo imaging agent in rat brain at 60 minutes post-injection.
Brain tissue samples were collected from adult male Wistar rats (200-300 g) at 60 minutes after injection of test in vivo imaging agent. These samples were then processed via solvent extraction (see below) to extract the ^18F-labelled parent along with any ^18F-labelled metabolites, before introduction to the HPLC.
Brain (minus cerebellum +medulla pons) was homogenized with 10 mls of ice-cold Acetonitrile (5000 rpm for 5 mins) to extract all the ^18F-labelled species. The resulting supernatant was then evaporated to dryness (rotary evaporation at 40° C.), concentrated in 2.5 mls of mobile phase, filtered and 1 ml was injected onto the HPLC.
The HPLC set up for ^18F analysis was connected to a dual BGO radio & UV detector. A μBondapak C18 prep column was used having dimensions 7.8×300 mm; 10 μm; 125 Å. An isocratic elution system was used using between 30-40% water and between 60-70% acetonitrile. The flow rate was 3 ml/min. The aqueous to organic phase ratio was varied for each test in vivo imaging agent to obtain a parent peak at retention time at or around 10 min±2 min.

[5] = Briard et al J Med Chem 2009; cited from earlier work
Wistar rat heart PBR = Wistar rat heart PBR (Rattus norvegicus, UniProt P16257); assay: biochemical
Wistar rat heart PBR, sequence (P16257 whole entry): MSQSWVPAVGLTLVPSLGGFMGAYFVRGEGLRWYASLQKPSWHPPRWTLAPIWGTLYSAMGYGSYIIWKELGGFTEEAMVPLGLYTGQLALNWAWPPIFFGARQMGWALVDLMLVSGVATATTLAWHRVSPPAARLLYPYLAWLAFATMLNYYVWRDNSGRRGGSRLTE
Procedure: Affinity for PBR was screened using a method adapted from Le Fur et al (Life Sci. 1983; USA 33: 449-57).
Each test compound (dissolved in 50 mM Tris-HCl, pH 7.4, 10 mM MgCl2 containing 1% DMSO) competed for binding to Wistar rat heart PBR against 0.3 nM [^3H] […] The reaction was carried out in 50 mM Tris-HCl, pH 7.4 10 mM MgCl2 for 15 minutes at 25° C.

T1 sequence (P16257 whole entry): as above
PBR (Homo sapiens, UniProt P30536), sequence (P30536 whole entry, species assumed): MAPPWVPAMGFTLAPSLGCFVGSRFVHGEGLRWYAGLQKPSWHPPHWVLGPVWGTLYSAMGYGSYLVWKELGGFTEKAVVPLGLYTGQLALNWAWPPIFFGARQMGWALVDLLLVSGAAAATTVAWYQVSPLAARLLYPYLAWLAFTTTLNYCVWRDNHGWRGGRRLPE

Question: With `CC[C@@H](C)N([11CH3])C(=O)c1cc2ccccc2c(-c2ccccc2Cl)n1` [(R)-[^11C]PK11195] as the compound, how does the protein binding [1] read?
Answer: high protein binding

Question: And the “specific to non-specific binding” value (PBR [2])?
Answer: low specific to non-specific binding

Question: Which results are given for `COc1ccc(OC)c(CN(C(=O)C[18F])c2ccccc2Oc2ccccc2)c1` [PBR06, reference compound]?
Answer: OB:striatum uptake (ratio of uptake in olfactory bulb compared to striatum) (PBR [3]): less than optimal for in vivo imaging; percentage of radioactivity in the brain representing intact test compound [4]: 90%; metabolism in the periphery [5]: metabolised quite rapidly in the periphery; penetration of metabolites through the blood-brain barrier [5]: do not penetrate the blood-brain barrier; Ki (Wistar rat heart PBR): 0.28 nM

Question: With `O=C(C[18F])N(Cc1cccc2c1OCC2)c1ccccc1Oc1ccccc1` [in vivo imaging agent 1] as the compound, how does the “OB:striatum uptake (ratio of uptake in olfactory bulb compared to striatum)” value (PBR [3]) read?
Answer: taken up relatively more in the OB as compared with the striatum

Question: What about the “percentage of radioactivity in the brain representing intact test compound” value [4] of the same compound?
Answer: 93%

Question: What about the “proportion intact in the brain (in words)” value [4] of the same compound?
Answer: even higher proportion intact in the brain at 60 minutes post-injection as compared with PBR06

Question: What about the Ki (Wistar rat heart PBR) of the same compound?
Answer: 0.31 nM

Question: What does the source list for `O=C(C[18F])N(Cc1cccc2c1OCO2)c1ccccc1Oc1ccccc1` [in vivo imaging agent 2]?
Answer: OB:striatum uptake (ratio of uptake in olfactory bulb compared to striatum) (PBR [3]): comparable with PBR06; percentage of radioactivity in the brain representing intact test compound [4]: 92%; proportion intact in the brain (in words) [4]: even higher proportion intact in the brain at 60 minutes post-injection as compared with PBR06; Ki (Wistar rat heart PBR): 2.03 nM

Question: With `O=C(C[18F])N(Cc1cccc2c1OCCO2)c1ccccc1Oc1ccccc1` [in vivo imaging agent 3] as the compound, how does the “OB:striatum uptake (ratio of uptake in olfactory bulb compared to striatum)” value (PBR [3]) read?
Answer: comparable with PBR06

Question: And the “percentage of radioactivity in the brain representing intact test compound” value [4]?
Answer: 82%

Question: And the Ki (Wistar rat heart PBR)?
Answer: 1.14 nM

Question: For `CC1(C)Cc2cccc(CN(C(=O)C[18F])c3ccccc3Oc3ccccc3)c2O1` [in vivo imaging agent 4], which Ki (Wistar rat heart PBR) is on record?
Answer: 2.66 nM
